Data published in PubChem BioAssay (NCI).
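The compound was tested at five concentrations on cells cultured in 96-well plates, with a 48-hour exposure period. TGI marks complete inhibition of growth.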

Key:
Assay in all cases: NCI-60 cell line screen, 48 h
MDA-MB-435 = test system: MDA-MB-435
SK-MEL-28 melanoma = test system: SK-MEL-28 melanoma
EKVX NSCLC = test system: EKVX NSCLC
CAKI-1 renal = test system: CAKI-1 renal
M14 melanoma = test system: M14 melanoma
SW-620 colon = test system: SW-620 colon
SF-539 CNS = test system: SF-539 CNS
UACC-257 melanoma = test system: UACC-257 melanoma
K-562 leukemia = test system: K-562 leukemia
U251 CNS = test system: U251 CNS

Compound	TGI (MDA-MB-435)	TGI (SK-MEL-28 melanoma)	TGI (EKVX NSCLC)	TGI (CAKI-1 renal)	TGI (M14 melanoma)	TGI (SW-620 colon)	TGI (SF-539 CNS)	TGI (UACC-257 melanoma)	TGI (K-562 leukemia)	TGI (U251 CNS)
N#Cc1nnc2c3c(-c4ccc(Cl)cc4)c(C#N)c(=O)[nH]c3nn2c1N	26.8 µM	44.5 µM	30.9 µM	16.4 µM	21.7 µM	32 µM	12.5 µM	38.5 µM	> 41.6 µM	10.7 µM
COc1cc(O)c2c(c1)C(O)C(O)CC1OC1C(=O)/C=C/CC(C)OC2=O (stereo not given)	8.31 µM	12 µM	35.8 µM	11.5 µM	11.8 µM	6.84 µM	17.9 µM	2.48 µM	13.6 µM	25 µM
O=C(O)c1ccc(Nc2cnc3ccc(C(F)(F)F)cc3n2)cc1	72.3 µM	> 100 µM	> 100 µM	30.9 µM	> 100 µM	46.6 µM	58.2 µM	93.9 µM	51.4 µM	59.2 µM
C/C(=C/CC[C@](C)(OC1OC(CO)C(O)C(O)C1O)[C@H]1CC[C@]2(C)[C@@H]1CC[C@@H]1[C@@]3(C)CC[C@H](O)C(C)(C)[C@@H]3C[C@H](O)[C@]12C)CO (stereo not given in full)	> 100 µM	38.5 µM	> 100 µM	81.6 µM	> 100 µM	62.4 µM	35.6 µM	55.3 µM	62.2 µM	28.5 µM
CC(C)[Si]1(C(C)C)OCC2OC(n3cnc4c(N)ncnc43)C(N)C2O[Si](C(C)C)(C(C)C)O1 (stereo not given)	30.7 µM	> 72.1 µM	> 66.9 µM	35.3 µM	26.3 µM	> 45.4 µM	24.4 µM	32.4 µM	36.9 µM	35.8 µM
CCOP(=O)(OCC)C(F)(F)CC1CCCCC1	> 10 µM	> 10 µM	> 10 µM	> 10 µM	> 10 µM	> 10 µM	> 10 µM	> 10 µM	> 10 µM	> 10 µM
COC(=O)C1(Cc2ccccc2)Cc2ccccc2C1=O (stereo not given)	53.4 µM	> 100 µM	> 100 µM	> 100 µM	> 100 µM	> 100 µM	> 100 µM	> 100 µM	> 100 µM	85.9 µM
COCCCN1C(=O)C2c3[nH]c4ccccc4c3C3CCC(C(C)(C)C)CC3C2C1=O (stereo not given)	> 100 µM	> 100 µM	> 100 µM	55 µM	39 µM	> 100 µM	70.2 µM	79.4 µM	> 10 µM	34.5 µM
C=C(CCC(C(=O)O)C1CCC2(C)C3=C(CCC12C)C1(C)CCC(O)C(C)(C)C1CC3)C(C)C (stereo not given)	> 100 µM	> 100 µM	> 100 µM	> 100 µM	> 100 µM	> 100 µM	> 100 µM	> 100 µM	43.3 µM	72.8 µM
CN(C)CCNc1nc2ccccc2c2c1C(=O)c1ccccc1-2	1.12 µM	2.84 µM	3.09 µM	2.54 µM	1.67 µM	4.9 µM	3.04 µM	3.7 µM	0.396 µM	2.83 µM
COC1(OC)/C(=C(\N)C=O)NC(C)(C)N1O	> 100 µM	> 100 µM	> 100 µM	> 100 µM	> 100 µM	> 100 µM	> 100 µM	> 100 µM	> 100 µM	> 100 µM
CC1=CC(c2ccccc2)n2c(nc3cc4ccccc4cc32)N1 (stereo not given)	> 100 µM	> 100 µM	> 100 µM	> 100 µM	> 100 µM	> 100 µM	> 100 µM	> 100 µM	> 100 µM	> 100 µM
O=C(NCCCCl)c1c(O)c2ccccc2[nH]c1=O	> 100 µM	> 100 µM	> 100 µM	> 100 µM	> 100 µM	> 100 µM	> 100 µM	> 100 µM	> 100 µM	> 100 µM
CN(Cc1nc2c(N)nc(N)nc2nc1N)c1ccc(C(=O)NC(CCC(=O)O)C(=O)O)cc1 (stereo not given)	> 100 µM	> 100 µM	> 100 µM	> 88 µM	> 100 µM	> 100 µM	> 100 µM	> 100 µM	> 100 µM	> 100 µM
O=C1O/C(=C\c2ccc(O)cc2)C(c2ccc(O)c(Cl)c2)=C1Br	53.2 µM	26.2 µM	40.7 µM	49.3 µM	26.4 µM	37.9 µM	29.1 µM	26.8 µM	10.5 µM	34.5 µM
COc1ccccc1OC/C(N=Cc1ccncc1)=N/NC(=O)c1ccncc1	> 100 µM	> 100 µM	> 100 µM	> 100 µM	> 100 µM	> 100 µM	> 100 µM	> 100 µM	> 100 µM	> 100 µM
O=C(O)c1ccccc1-c1ccccc1C(=O)c1ccccc1	> 100 µM	> 100 µM	> 100 µM	> 100 µM	> 100 µM	> 100 µM	> 100 µM	> 100 µM	> 100 µM	> 100 µM
